From patent US11814364B2, “Pyridine N-oxide derivatives useful as factor XIa inhibitors” (Janssen Pharmaceutica NV, priority 2021, dated 2023)

Molecular target: human plasma kallikrein (Homo sapiens, UniProt P03952)
Assay: Kallikrein inhibition FLINT assay with quenched AMC peptide substrate Z-Gly-Pro-Arg-AMC (end point EP or kinetic KIN reads)
Assay type: biochemical
Conditions: kinetic reads at 5 min intervals over 30 min; read-out: Kallikrein (KIN) IC50
Experimental: A fluorescence intensity (FLINT) based assay was used to monitor inhibition of human plasma kallikrein.
The Kallikrein FLINT assay was used with the following Z-Gly-Pro-Arg-AMC assay buffer: 50 mM Tris, pH 7.5, 100 mM NaCl, 5 mM CaCl2, 0.1 mg/mL BSA, 0.03% CHAPS. Assay buffer was prepared by mixing all ingredients fresh. 2× Z-Gly-Pro-Arg-AMC peptide substrate was prepared by diluting 10 mM stock into 1× assay buffer for a 100 μM working concentration (50 μM final concentration).
Test compound(s) were run in an 11-point, 3-fold serial dilution with a final top compound concentration of 1 μM. Final DMSO in assay was 2%. Plasma kallikrein was pre-incubated for 30-minute with compound and then 50 μM substrate was added to initiate the reaction. The assay was run with either end point (EP) reads at 30 min or kinetic (KIN) reads at 5 min intervals over 30 minutes.
Percent inhibition (IC50) curves were generated per compound tested, and data was analyzed using a 4-parameter logistic fit using GeneData Screener. The relative fluorescence unit (RFU) values were normalized to percent inhibition using the following equation: % inhibition=((HC−LC)−(compound−LC)/(HC−LC))*100
An 11-point dose response curve for the test compound(s) was generated using GENDATA to determine IC50 value based on the following equation: Y=Bottom+(Top−Bottom)/(1+10^((log IC50−X)*HillSlope))
Results listed in columns with […] designation were measured using endpoint reads where a single fluorescence reading was measured for each well at a 30 min timepoint.

human plasma kallikrein, sequence (P03952 391-638 limits assumed): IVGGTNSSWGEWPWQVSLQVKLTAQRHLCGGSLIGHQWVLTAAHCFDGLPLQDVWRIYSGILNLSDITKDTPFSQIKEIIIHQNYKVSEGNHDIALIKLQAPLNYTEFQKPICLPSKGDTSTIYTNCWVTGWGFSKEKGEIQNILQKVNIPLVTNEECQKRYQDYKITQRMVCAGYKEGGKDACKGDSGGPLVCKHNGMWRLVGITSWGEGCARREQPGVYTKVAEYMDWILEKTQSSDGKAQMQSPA
human plasma kallikrein, sequence (P03952 20-390 partner limits assumed): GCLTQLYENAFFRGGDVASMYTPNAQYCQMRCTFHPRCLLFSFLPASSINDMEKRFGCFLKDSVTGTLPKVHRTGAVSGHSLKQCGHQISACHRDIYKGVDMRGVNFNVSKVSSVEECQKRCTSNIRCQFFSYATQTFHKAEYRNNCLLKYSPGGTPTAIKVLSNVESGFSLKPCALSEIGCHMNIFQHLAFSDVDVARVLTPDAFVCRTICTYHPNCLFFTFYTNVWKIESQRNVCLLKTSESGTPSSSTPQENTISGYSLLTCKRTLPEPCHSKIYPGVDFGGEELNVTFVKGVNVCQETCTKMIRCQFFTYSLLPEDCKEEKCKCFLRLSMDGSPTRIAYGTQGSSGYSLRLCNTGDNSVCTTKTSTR

Row | Compound | IC50
1 | COC(=O)N(C)CC(c1ccc(-c2c(-n3cnnn3)ccc(Cl)c2F)c[n+]1[O-])n1cc(-c2ccnc(F)c2)cn1 (single isomer, unassigned) [Example P355] | 933 nM
2 | O=C(O)c1ccc(-c2cnn(C(CC3CC3C(=O)N3CCC(c4ccccc4)C3)c3ccc(-c4cc(Cl)ccc4-n4cnnn4)c[n+]3[O-])c2)cc1 (single isomer, unassigned) [Example P101] | 625 nM
3 | O=C(O)c1ccc(-c2cnn(C(Cc3ccc(Oc4ccccc4)cc3)c3ccc(-c4cc(Cl)ccc4-n4cnnn4)c[n+]3[O-])c2)cc1 (stereo not shown) [Example P147] | 12.2 nM
4 | NC(=O)c1ccc(-c2cnn(C(CCOC(F)F)c3ccc(-c4c(-n5cc(Cl)nn5)ccc(Cl)c4F)c[n+]3[O-])c2)cc1 (single isomer, unassigned) [Example P896] | 0.2 nM
5 | NC(=O)c1ccc(-c2cnn(C(CC3CC3)c3ccc(-c4c(-n5cc(C(F)(F)F)nn5)ccc(Cl)c4F)c[n+]3[O-])c2)cc1F (single isomer, unassigned) [Example P889] | 77.8 nM
6 | O=c1[nH]c(-c2ccc(-c3cnn(C(CCOC(F)F)c4ccc(-c5c(-n6cc(C(F)(F)F)nn6)ccc(Cl)c5F)c[n+]4[O-])c3)cc2)no1 (stereo not shown) [Example P903] | 11.5 nM
7 | O=C(O)C1CCN(C(=O)C2CC2CC(c2ccc(-c3c(-n4cnnn4)ccc(Cl)c3F)c[n+]2[O-])n2cc(-c3ccccc3)cn2)CC1 (stereo not shown) [Example P213] | 491 nM
8 | [O-][n+]1cc(-c2c(-n3cnnn3)ccc(Cl)c2F)ccc1C(CC1CC1)n1cc(-c2ccncc2)cn1 (single isomer, unassigned) [Example P262] | 31.8 nM
9 | [O-][n+]1cc(-c2cc(Cl)ccc2-n2cnnn2)ccc1C(Cn1cc(C(F)(F)F)cn1)n1cc(-c2ccnc(F)c2)cn1 (stereo not shown) [Example P321] | 94.9 nM
10 | Cn1ccc(C[C@H](c2ccc(-c3cc(Cl)ccc3OCC(F)(F)F)c[n+]2[O-])n2cc(-c3ccc(C(=O)O)cc3)cn2)n1 [Example Q58] | 517 nM
11 | COc1cc([C@@H](CC2CC2)n2cc(-c3ccc(C(=O)O)cc3)cn2)[n+]([O-])cc1-c1cc(Cl)ccc1C#N [Example Q51] | 14.5 nM
12 | COc1cc(C(CC2CC2)n2cc(-c3ccc(N)nc3F)cn2)[n+]([O-])cc1-c1c(-c2cnco2)ccc(Cl)c1F (stereo not shown) [Example P182] | 55.2 nM
13 | Cc1nc(N)ccc1-c1cnn(C(CC2CC2)c2ccc(-c3c(-n4cnnn4)ccc(Cl)c3F)c[n+]2[O-])c1 (stereo not shown) [Example P183] | 186 nM
14 | [O-][n+]1cc(-c2c(-n3cnnn3)ccc(Cl)c2F)ccc1[C@H](Cc1ccc(F)cc1)n1cc(-c2ccnn2C(F)F)cn1 [Example P566] | 67.6 nM
15 | CCC(c1ccc(-c2c(-n3cnnn3)ccc(Cl)c2F)c[n+]1[O-])n1cc(-c2ccc(C(N)=O)c(F)c2)cn1 (single isomer, unassigned) [Example P949] | 21.6 nM
16 | O=C1OCCN1CC(c1ccc(-c2c(-n3cnnn3)ccc(Cl)c2F)c[n+]1[O-])n1cc(-c2ccnc(C(F)(F)F)c2)cn1 (single isomer, unassigned) [Example P430] | 38 nM
17 | Cn1cc2cc(-c3cnn(C(CC4CC4)c4ccc(-c5c(-n6cnnn6)ccc(Cl)c5F)c[n+]4[O-])c3)ccc2n1 (stereo not shown) [Example P326] | 47.9 nM
18 | NC(=O)c1ccc(-c2cnn(C(Cc3ccn(C(F)F)n3)c3ccc(-c4c(C(F)F)ccc(Cl)c4F)c[n+]3[O-])c2)cc1F (single isomer, unassigned) [Example Q67] | 2.9 nM
19 | N#Cc1cc(-c2cnn(C(CC3CC3)c3ccc(-c4c(-n5cnnn5)ccc(Cl)c4F)c[n+]3[O-])c2)ccn1 (stereo not shown) [Example P294] | 212 nM
20 | Cn1ncnc1-c1cnn(C(CCOC(F)(F)F)c2ccc(-c3c(-n4cc(C(F)(F)F)nn4)ccc(Cl)c3F)c[n+]2[O-])c1 (stereo not shown) [Example P840] | ~423 nM

Row | Compound | IC50
21 | O=C(C1CC1CC(c1ccc(-c2c(-n3cnnn3)ccc(Cl)c2F)c[n+]1[O-])n1cc(-c2ccncc2)cn1)N1CCCCC1 (stereo not shown) [Example P252] | 617 nM
22 | CC1CC1CC(c1ccc(-c2c(-n3cnnn3)ccc(Cl)c2F)c[n+]1[O-])n1cc(-c2ncnn2C(F)F)cn1 (stereo not shown) [Example P766] | > 100 nM
23 | [O-][n+]1cc(-c2c(-n3cc(C4CC4)nn3)ccc(Cl)c2F)ccc1C(Cn1cc(F)cn1)n1cc(-c2ccnc(C(F)(F)F)c2)cn1 (stereo not shown) [Example P485] | 670 nM
24 | NC(=O)C1CC1CC(c1ccc(-c2cc(Cl)ccc2-n2cnnn2)c[n+]1[O-])n1cc(-c2ccc(C(=O)O)cc2)cn1 (stereo not shown) [Example P114] | 184 nM
25 | CC1(C(=O)NCC(c2ccc(-c3cc(Cl)ccc3-n3cnnn3)c[n+]2[O-])n2cc(-c3ccnc(F)c3)cn2)CC1 (stereo not shown) [Example P347] | 806 nM
26 | NC(=O)c1ccc(-c2cnn(C(Cc3nccs3)c3ccc(-c4c(-n5cc(C(F)(F)F)nn5)ccc(Cl)c4F)c[n+]3[O-])c2)cc1F (single isomer, unassigned) [Example P943] | 6.2 nM
27 | COCC(=O)Nc1ccc(-c2cnn(C(CC3CC3)c3ccc(-c4c(-n5cnnn5)ccc(Cl)c4F)c[n+]3[O-])c2)cc1 (stereo not shown) [Example P131] | 192 nM
28 | O=C(c1cnn(CC(c2ccc(-c3c(-n4cnnn4)ccc(Cl)c3F)c[n+]2[O-])n2cc(-c3ccncc3)cn2)c1)N1CCCCC1 (stereo not shown) [Example P291] | 12.5 nM
29 | COc1cc(C(CC2CC2)n2cc(-c3ccnn3C)cn2)[n+]([O-])cc1-c1c(-n2cnnn2)ccc(Cl)c1F (single isomer, unassigned) [Example P491] | 2.1 nM
30 | [O-][n+]1cc(-c2c(-n3cnnn3)ccc(Cl)c2F)ccc1C(CCOC(F)F)n1cc(-c2ccncc2F)cn1 (stereo not shown) [Example P385] | 3.5 nM
31 | [O-][n+]1cc(-c2c(-n3cnnn3)ccc(Cl)c2F)ccc1C(Cn1cc(F)cn1)n1cc(-c2ccnc(C(F)(F)F)c2)cn1 (stereo not shown) [Example P332] | 59.5 nM
32 | O=C(NC1CC1)c1ccc(-c2cnn(C(Cc3ccc(F)cc3)c3ccc(-c4cc(Cl)ccc4-n4cnnn4)c[n+]3[O-])c2)cc1 (stereo not shown) [Example P55] | 5.4 nM
33 | Cn1nncc1-c1cnn([C@H](Cc2ccc(F)cc2)c2ccc(-c3c(-n4cc(OC(F)F)nn4)ccc(Cl)c3F)c[n+]2[O-])c1 [Example P635] | 3.4 nM
34 | COc1cc(C(CC2CC2)n2cc(-c3cnn(C)c(=O)c3)cn2)[n+]([O-])cc1-c1c(C#N)ccc(Cl)c1F (single isomer, unassigned) [Example Q10] | 375 nM
35 | CCOCCC(c1ccc(-c2c(-n3cnnn3)ccc(Cl)c2F)c[n+]1[O-])n1cc(-c2ccc(NC(=O)OC)cc2)cn1 (stereo not shown) [Example P204] | 45.1 nM
36 | O=C(NC1CC1)c1ccc(-c2cnn(C(Cc3ccc(F)cc3)c3ccc(-c4c(-c5cnco5)ccc(Cl)c4F)c[n+]3[O-])c2)cc1 (stereo not shown) [Example P136] | 189 nM
37 | COC(=O)Nc1ccc(-c2cnn(C(CC3CCCCO3)c3ccc(-c4c(-n5cnnn5)ccc(Cl)c4F)c[n+]3[O-])c2)cc1 (single isomer, unassigned) [Example P127] | 70.1 nM
38 | NC(=O)c1ccc(-c2cnn(C(CC3CC3C(=O)N3CCCCC3)c3ccc(-c4c(C(F)F)ccc(Cl)c4F)c[n+]3[O-])c2)cc1 (stereo not shown) [Example Q37] | 99.1 nM
39 | COC(=O)Nc1ccc(-c2cnn(C(CC3CC3)c3cc(OC)c(-c4c(-n5cnnn5)ccc(Cl)c4F)c[n+]3[O-])c2)cc1 (stereo not shown) [Example P93] | 4.5 nM
40 | NC(=O)c1ccc(-c2cnn(C(Cc3ccn(C(F)F)n3)c3ccc(-c4c(-n5cc(C(F)(F)F)nn5)ccc(Cl)c4F)c[n+]3[O-])c2)cc1 (single isomer, unassigned) [Example P908] | 0.3 nM
